The text below walks through data of the PolyMetriX glass transition set.

`*C(=O)c1ccc2c(c1)C(=O)N(c1ccc(-c3ccc(Oc4ccc(C5(C)CC(C)(C)c6ccc(Oc7ccc(-c8ccc(N9C(=O)c%10ccc(*)cc%10C9=O)cc8)cc7C(F)(F)F)cc65)cc4)c(C(F)(F)F)c3)cc1)C2=O` (repeat unit) displayed a glass transition temperature of 252.00 °C.

Consider `*C(=O)c1ccc2c(c1)C(=O)N(c1ccccc1C(=O)c1ccccc1N1C(=O)c3ccc(*)cc3C1=O)C2=O` (repeat unit), for which the glass transition temperature is 289.00 °C.

For `*C(=O)c1ccc2c(c1)C(=O)N(c1ccccc1Cc1ccccc1N1C(=O)c3ccc(*)cc3C1=O)C2=O` (repeat unit), the glass transition temperature was 285.00 °C.

Regarding `*CC(O)COc1ccc(C(C)(C)c2ccc(OCC(O)COc3cccc(NC(=O)Cc4cccc(CC(=O)Nc5cccc(O*)c5)c4)c3)cc2)cc1` (repeat unit), the glass transition temperature turned out to be 119.00 °C.

In turn, `*CC(O)COc1ccc(C(C)(C)c2ccc(OCC(O)COc3cccc(NC(=O)c4cccc(C(=O)Nc5cccc(O*)c5)c4)c3)cc2)cc1` (repeat unit) displayed a glass transition temperature of 133.00 °C.

In the case of `*CC(O)COc1ccc(C(C)(C)c2ccc(OCC(O)COc3cccc(O*)c3)cc2)cc1` (repeat unit), the glass transition temperature stood at 83.00 °C.

In turn, `*CC(O)COc1ccc(S(=O)(=O)c2ccc(OCC(O)COc3cccc(O*)c3)cc2)cc1` (repeat unit) showed a glass transition temperature of 105.00 °C.

Consider `*CCCCCCCCCCCCOc1ccc(C(C)(C)c2ccc(OCOc3ccc(C(C)(C)c4ccc(O*)cc4)cc3)cc2)cc1` (repeat unit), for which the glass transition temperature was determined as 37.00 °C.

For the molecule `*CCCCCCCCCCNC(=O)/C=C(\C)C(=O)N*` (repeat unit), the glass transition temperature was found to be 74.00 °C.

With `*CCCCCCCCCCOc1ccc(N(c2ccccc2)c2ccc(-c3ccc(N(c4ccccc4)c4ccc(O*)cc4)cc3)cc2)cc1` (repeat unit), the glass transition temperature was 90.00 °C.

`*CCCCCCCCOc1ccc(C(C)(C)c2ccc(O*)cc2)cc1` (repeat unit): the glass transition temperature was found to be 19.60 °C.

In the case of `*CCCCCCOc1ccc(C(C)(C)c2ccc(O*)cc2)cc1` (repeat unit), the glass transition temperature amounted to 36.00 °C.

In turn, `*CCCCCCOc1ccc(N(c2ccccc2)c2ccc(-c3ccc(N(c4ccccc4)c4ccc(O*)cc4)cc3)cc2)cc1` (repeat unit) registered a glass transition temperature of 85.00 °C.

For the molecule `*CCOC(=O)C1CCC(C(=O)OCCOc2ccc(C(C)(C)c3ccc(O*)cc3)cc2)CC1` (repeat unit), the glass transition temperature stood at 57.00 °C.

On to `*CCOC(=O)c1ccc(C(=O)OCCOc2ccc(C(C)(C)c3ccc(O*)cc3)cc2)cc1` (repeat unit), for which the glass transition temperature came out at 83.00 °C.

For `*COc1ccc(C(C)(C)c2ccc(Oc3ccc(*)n3-c3ccc(C#N)cc3)cc2)cc1` (repeat unit), the glass transition temperature was found to be 73.13 °C.

In turn, `*OP(=O)(Oc1ccc(C(C)(C)c2ccc(*)cc2)cc1)Oc1c(Cl)cc(Cl)cc1Cl` (repeat unit) showed a glass transition temperature of 94.00 °C.

Molecule `*OS(=O)(=O)c1cc(S(=O)(=O)Oc2ccc(C3(c4ccc(*)c(C)c4)CCCCC3)cc2C)ccc1C` (repeat unit) yielded a glass transition temperature of 141.00 °C.

Take `*OS(=O)(=O)c1cccc(S(=O)(=O)Oc2ccc(C(C)(CC)c3ccc(*)cc3)cc2)c1` (repeat unit): the glass transition temperature came out at 147.00 °C.

In turn, `*Oc1cc(Oc2ccc(C(C)(C)c3ccc(*)cc3)cc2)cc(C(=O)Oc2ccc(/N=N/c3ccc(C#N)cc3)cc2)c1` (repeat unit) yielded a glass transition temperature of 163.00 °C.

In turn, `*Oc1ccc(-c2ccc(-c3ccc(Oc4ccc(C(C)(C)c5ccc(*)cc5)cc4)cc3)cc2)cc1` (repeat unit) returned a glass transition temperature of 182.00 °C.

Molecule `*Oc1ccc(-c2ccc(Oc3ccc(C(=O)c4ccc5cc(C(=O)c6ccc(*)cc6)ccc5c4)cc3)cc2)cc1` (repeat unit) returned a glass transition temperature of 195.00 °C.

As to `*Oc1ccc(-c2ccc(Oc3ccc(C(C)(C)c4ccc(*)cc4)cc3)cc2)cc1` (repeat unit), the glass transition temperature was 154.00 °C.

`*Oc1ccc(C(C)(c2ccccc2)c2ccc(Oc3c(F)c(F)c(C(=O)c4c(F)c(F)c(*)c(F)c4F)c(F)c3F)cc2)cc1` (repeat unit): the glass transition temperature was 175.00 °C.

Regarding `*Oc1ccc(S(=O)(=O)c2ccc(Oc3ccc(-c4ccc(*)cc4)cc3)cc2)cc1` (repeat unit), the glass transition temperature is 221.00 °C.

Molecule `*Oc1ccc(S(=O)(=O)c2ccc(Oc3ccc(-c4ccc(-c5ccc(*)c(C(F)(F)F)c5)cc4)cc3C(F)(F)F)cc2)cc1` (repeat unit) showed a glass transition temperature of 214.00 °C.

In turn, `*Oc1ccc(S(=O)(=O)c2ccc(Oc3ccc(C(C)(C)c4ccc(OCCCCOc5ccc(C(C)(C)c6ccc(*)cc6)cc5)cc4)cc3)cc2)cc1` (repeat unit) returned a glass transition temperature of 140.00 °C.

`*c1cc(C(c2ccc(OCCN(CC)c3ccc(/C=C/C4=CC(=C(C#N)C#N)CC(C)(C)C4)cc3)c(N3C(=O)c4ccc(Oc5ccc6c(c5)C(=O)N(*)C6=O)cc4C3=O)c2)(C(F)(F)F)C(F)(F)F)ccc1OCCN(CC)c1ccc(/C=C/C2=CC(=C(C#N)C#N)CC(C)(C)C2)cc1` (repeat unit) came in with a glass transition temperature of 202.00 °C.

In the case of `*c1cc(C(c2ccc(OCc3cc(OCCN(C)c4ccc(/C=C/C5=CC(=C(C#N)C#N)CC(C)(C)C5)cc4)cc(OCCN(C)c4ccc(/C=C/C5=CC(=C(C#N)C#N)CC(C)(C)C5)cc4)c3)c(N3C(=O)c4ccc(Oc5ccc6c(c5)C(=O)N(*)C6=O)cc4C3=O)c2)(C(F)(F)F)C(F)(F)F)ccc1OCc1cc(OCCN(C)c2ccc(/C=C/C3=CC(=C(C#N)C#N)CC(C)(C)C3)cc2)cc(OCCN(C)c2ccc(/C=C/C3=CC(=C(C#N)C#N)CC(C)(C)C3)cc2)c1` (repeat unit), the glass transition temperature turned out to be 178.00 °C.

Molecule `*c1ccc(-c2ccc(Oc3ccc(C4(C)CC(C)(C)c5ccc(Oc6ccc(-c7ccc(N8C(=O)c9ccc(Oc%10ccc(C(C)(C)c%11ccc(Oc%12ccc%13c(c%12)C(=O)N(*)C%13=O)cc%11)cc%10)cc9C8=O)cc7)cc6C(F)(F)F)cc54)cc3)c(C(F)(F)F)c2)cc1` (repeat unit) yielded a glass transition temperature of 241.00 °C.

In turn, `*c1ccc(OCC2CCC(COc3ccc(-n4c(=O)c5cc6c(=O)n(*)c(=O)c6cc5c4=O)cc3)CC2)cc1` (repeat unit) displayed a glass transition temperature of 306.70 °C.

The molecule `*c1ccc(OCCN(CC)c2ccc(-c3ccc(C(=C(C#N)C#N)c4ccc(N(CC)CC)cc4)s3)cc2)c(-c2cc(-c3ccccc3)c3cc(Oc4ccc5nc(*)cc(-c6ccccc6)c5c4)ccc3n2)c1` (repeat unit) came in with a glass transition temperature of 215.00 °C.

The molecule `*c1ccc(OCOc2ccc(-c3nc(-c4ccc([N+](=O)[O-])cc4)oc3*)cc2)cc1` (repeat unit) displayed a glass transition temperature of 194.00 °C.

Molecule `*c1ccc(Oc2c(F)c(F)c(C(=O)c3c(F)c(F)c(Oc4ccc(C5(*)OC(=O)c6ccccc65)cc4)c(F)c3F)c(F)c2F)cc1` (repeat unit) gave a glass transition temperature of 215.00 °C.

Turning to `*c1ccc(Oc2ccc(-c3c(-c4ccccc4)c(-c4ccc(-c5nc6ccccc6c(*)c5-c5ccccc5)cc4)nc4ccccc34)cc2)cc1` (repeat unit), the glass transition temperature worked out at 273.00 °C.

The molecule `*c1ccc(Oc2ccc(-c3c4ccccc4c(-c4ccc(Oc5ccc(-c6c7c(c(*)c8ccccc68)C(=O)N(c6ccccc6)C7=O)cc5)c(C(F)(F)F)c4)c4ccccc34)cc2C(F)(F)F)cc1` (repeat unit) displayed a glass transition temperature of 361.00 °C.

On to `*c1ccc(Oc2ccc(-c3cc(-c4ccc(Oc5ccc(-c6cc(*)nc7ccccc67)cc5)cc4)c4ccccc4n3)cc2)cc1` (repeat unit), for which the glass transition temperature stood at 300.00 °C.

In turn, `*c1ccc(Oc2ccc(-c3ccc(Oc4ccc(-c5ncc(*)o5)cc4C(F)(F)F)cc3)cc2)c(C(F)(F)F)c1` (repeat unit) showed a glass transition temperature of 200.00 °C.

Molecule `*c1ccc(Oc2ccc(-c3ccc(Oc4ccc(-n5c(=O)c6cc7c(=O)n(*)c(=O)c7cc6c5=O)cc4)cc3)cc2)cc1` (repeat unit) registered a glass transition temperature of 300.00 °C.

`*c1ccc(Oc2ccc(-c3cccc(-c4ccc(Oc5ccc(-c6c7c(c(*)c8ccccc68)C(=O)N(c6ccccc6)C7=O)cc5)c(C(F)(F)F)c4)n3)cc2C(F)(F)F)cc1` (repeat unit) returned a glass transition temperature of 298.00 °C.

Molecule `*c1ccc(Oc2ccc(-c3cnc4cc(-c5ccc6nc(*)cnc6c5)ccc4n3)cc2)cc1` (repeat unit) registered a glass transition temperature of 334.00 °C.

As to `*c1ccc(Oc2ccc(-c3cnc4ccc(Oc5ccc6nc(*)cnc6c5)cc4n3)cc2)cc1` (repeat unit), the glass transition temperature is 270.00 °C.

`*c1ccc(Oc2ccc(N3C(=O)c4ccc(C(=O)c5ccc6c(c5)C(=O)N(c5ncc(*)s5)C6=O)cc4C3=O)cc2)cc1` (repeat unit) returned a glass transition temperature of 320.20 °C.

`*c1ccc(Oc2ccc(P(=O)(c3ccccc3)c3ccc(Oc4ccc(-c5ccc(*)nc5)cc4)cc3)cc2)cc1` (repeat unit) gave a glass transition temperature of 257.00 °C.

`*c1ccc(Oc2ccc(S(=O)(=O)c3ccc(Oc4ccc(-c5cc(*)n(-c6ccccc6)n5)cc4)cc3)cc2)cc1` (repeat unit) came in with a glass transition temperature of 235.00 °C.

`*c1ccc(Oc2ccc(S(=O)(=O)c3ccc(Oc4ccc(-c5nc(-c6ccc(-c7nc(*)c(-c8ccccc8)[nH]7)cc6)[nH]c5-c5ccccc5)cc4)cc3)cc2)cc1` (repeat unit) gave a glass transition temperature of 301.00 °C.

Consider `*c1ccc(Oc2ccc(S(=O)(=O)c3ccc(Oc4ccc(-c5ncc(*)o5)cc4C(F)(F)F)cc3)cc2)c(C(F)(F)F)c1` (repeat unit), for which the glass transition temperature is 210.00 °C.

`*c1ccc2c(c1)C(=O)N(c1cc(C(c3ccc(OCCN(CC)c4ccc(/N=N/c5ccc([N+](=O)[O-])cc5)cc4)c(N4C(=O)c5ccc(C(*)(C(F)(F)F)C(F)(F)F)cc5C4=O)c3)(C(F)(F)F)C(F)(F)F)ccc1OCCN(CC)c1ccc(/N=N/c3ccc([N+](=O)[O-])cc3)cc1)C2=O` (repeat unit) gave a glass transition temperature of 199.00 °C.

The molecule `*c1ccc2c(c1)C(=O)N(c1ccc(-c3ccc(Oc4ccc5c(c4)C(C)(c4ccc(Oc6ccc(-c7ccc(N8C(=O)c9ccc(C(*)(C(F)(F)F)C(F)(F)F)cc9C8=O)cc7)cc6C(F)(F)F)cc4)CC5(C)C)c(C(F)(F)F)c3)cc1)C2=O` (repeat unit) had a glass transition temperature of 262.00 °C.
